Experimental findings from US10835500B2, “Medicament for accelerated wound healing” (Symrise AG, priority 2014, dated 2020) are described below.

The target in test [1] is T1, recombinantly expressed OR2AT4 (Homo sapiens, UniProt A6NND4).
T1 construct: expressed in transfected cells; host or cells: Hana3A cells, transient transfection with pcDNA3-OR2AT4 by the calcium phosphate method
T1 sequence (A6NND4 1-320): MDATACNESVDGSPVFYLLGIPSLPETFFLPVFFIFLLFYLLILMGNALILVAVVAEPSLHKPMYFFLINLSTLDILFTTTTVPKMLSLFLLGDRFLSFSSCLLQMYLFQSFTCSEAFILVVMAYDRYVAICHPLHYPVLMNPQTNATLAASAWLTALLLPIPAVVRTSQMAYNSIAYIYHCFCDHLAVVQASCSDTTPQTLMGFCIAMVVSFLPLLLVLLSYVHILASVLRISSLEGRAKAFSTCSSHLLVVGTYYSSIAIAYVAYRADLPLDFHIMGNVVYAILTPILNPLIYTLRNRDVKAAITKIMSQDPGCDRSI
Nature of the test: CRE dual luciferase assay in OR2AT4-transfected Hana3A cells. The class given is cell-based. To be noted: for activation of OR2AT4 in the luciferase assay: up to the highest useable concentrations 10-25 μM. The text has this: In order to verify calcium imaging results and investigate dose-dependent activation of OR2AT4, a further method of deorphanization based on a dual luciferase system was used. In this method, in addition to the OR, two luciferases were introduced into the Hana3A cells. When the expressed OR is activated by an odorant and cAMP is formed in the further course of the signal cascade, this initiates expression of firefly luciferase via CRE (cAMP response elements). The second luciferase, Renilla luciferase, serves as a control for transfection and vitality of the cells. By calculating the two luciferase values, the activation capacity of an OR by an odorant can be determined. In the CRE luciferase assay, the odorant remains on the cells for hours in order to ensure that the luciferase is expressed. Because of the longer incubation time of the odorants and the possibility of activating more receptors in a 96-well format, this method is more sensitive than calcium imaging and is well-suited for establishing dose-response relationships.
For Brahmanol, however, a higher concentration (≥75 μM) was required than for Sandalore® (≥25 μM) in order to produce a significant effect at the receptor (FIG. 3c).
(§1) Determination of receptive field of recombinantly expressed OR2AT4. […] As a control, untransfected Hana3A cells were simulated with Sandalore®. 100 μM of ATP was used at the end of each measurement as a positive control stimulus. […] The mean response rate including standard error of the cells is shown relative to the Ringer control. […] Isobornyl.: isobornyl cyclohexanol; S. öl: sandalwood oil. Kruskal-Wallis test with multiple comparison. *: p<0.05. […] Significance was determined between Hana3A cells transfected with OR2AT4-pcDNA3 and pcDNA3 without an insert. The dots show mean normalized luciferase-activity including standard error. Mann-Whitney U test; n=3 experiments. *: p<0.05; **: p<0.01; ***: p<0.001.

Test [2] concerns the target T1, recombinantly expressed OR2AT4. In words: Calcium imaging of transiently OR2AT4-transfected Hana3A cells. It is filed as cell-based. Conditions: 1 mM odorant, 20 s stimulation, OR2AT4-transfected Hana3A cells. As to the method:
Hana3A cells expressing stable endogenous olfactory transduction factors, which specifically target the incorporation of ORs into the cell membrane and thus improve activation capacity, were used as a heterologous expression system. Moreover, the 20 first N-terminal amino acids of rhodopsins (Rho-tag) were added before the N-terminus of the coding sequence of the OR, also in order to support heterologous expression.
A method established at the Department of Cell Physiology of Ruhr University Bochum for deorphanization studies is calcium imaging, in which activation of an OR by an odorant is visualized by a change in the intracellular calcium concentration of transfected cells using a fluorescent dye [cf. Wetzel et al. in: J. Neurosci. 19, pp. 7426-7433 (1999); Spehr et al. in: Science 299, pp. 2054-2058 (2003); Neuhaus et al. in: J. Biol. Chem. 284, pp. 16218-16225 (2009)]. In this method, the Hana3A cells are briefly (20 s) stimulated with an odorant and selected for odorant screenings of high concentrations (up to 1 mM) in order to confirm activation of ORs weakly expressed in Hana3A cells.
The activation of OR2AT4 by Sandalore® was first investigated by the calcium imaging method.
Odorants can not only activate a receptor, but can also act as antagonists to an OR.
as §1
Antagonists of recombinantly expressed OR2AT4. […] 100 μM of ATP was used at the end of each measurement as a positive control stimulus. […] The mean response rate including standard error of the cells is shown relative to the Ringer control. Number of measurements: Ringer (23), Sandalore® (22), Sandalore®+dimetol (11), dimetol (11), Phenirat (14), Sandalore®+Phenirat (22), Oxyphenylon (12), and Sandalore®+Oxyphenylon (20). S: Sandalore®. Kruskal-Wallis test with multiple comparison. *: p<0.05.

In test [3] the test system is p38 MAPK. In words: Western Blot, phosphorylation of p38 MAPK in HaCaT cells. The class given is cell-based, human. To be noted: inhibitor 10 μM, Sandalore 500 μM. Here is the method:
(§2) In the following, an investigation was to be conducted to determine whether a MAPK signalling pathway is activated by Sandalore® stimulation in skin cells, and if so, which pathway is involved. For detection, HaCaT cells were stimulated for 0-30 min with 500 μM of Sandalore®, and the proteins were then isolated and used in Western Blot assays.
In order to reveal a possible interaction of the two MAPK signalling pathways, ERK1/2 phosphorylation in the presence of the p38 MAPK inhibitor SB203580 and p38 MAPK phosphorylation in the presence of the ERK1/2 MAPK inhibitor U0126 were investigated.
A) Western Blot for investigating the phosphorylation of the MAP kinases in HaCaT cells stimulated for 0, 5, 15 and 30 min with Sandalore®(500 μM). […] ERK1/2: 42/44 kDa; p38: 43 kDa; JNK/SAPK: 46/54 kDA; ▪-tubulin: 52 kDa. B) Quantitative evaluation of p38 and ERK1/2 phosphorylation of HaCaT cells stimulated for 30 min with Sandalore®(500 μM) or additionally with the p38 inhibitor 5B203580 (10 μM) or ERK1/2 inhibitor U0126 (10 μM). For evaluation, the ratio of the phosphorylated (p) and unphosphorylated proteins was established and compared to that of untreated cells. Mean values including standard error. Mann-Whitney U test. *: p<0.05; ***: p<0.001. In C), the inhibitors of the respective other MAP kinase were used, and phosphorylation was compared to the cells stimulated with Sandalore® (500 μM) alone. Mean values including standard error. Mann-Whitney U test. *: p<0.05. The Western Blot analyses were carried out with three different protein isolations.
On the technique in general: A western blot detects proteins with antibodies after separation by electrophoresis.

The subject of test [4] is ERK1/2 MAPK. Nature of the test: Western Blot, phosphorylation of ERK1/2 MAPK in HaCaT cells. It is filed as cell-based, human. To be noted: inhibitor 10 μM, Sandalore 500 μM. Here is the method: as §2
In order to reveal a possible interaction of the two MAPK signalling pathways, ERK1/2 phosphorylation in the presence of the p38 MAPK inhibitor SB203580 and p38 MAPK phosphorylation in the presence of the ERK1/2 MAPK inhibitor U0126 were investigated. Phosphorylation was increased for both kinases in the presence of the respective inhibitors compared to the cells stimulated with Sandalore® only. This effect was significant for p38 MAPK (FIG. 17c).
Effect of Sandalore® stimulation on phosphorylation of MAP kinases in skin cells. A) Western Blot for investigating the phosphorylation of the MAP kinases in HaCaT cells stimulated for 0, 5, 15 and 30 min with Sandalore®(500 μM). In order to confirm uniform protein volume, ▪-tubulin was used as a control. ERK1/2: 42/44 kDa; p38: 43 kDa; JNK/SAPK: 46/54 kDA; ▪-tubulin: 52 kDa. B) Quantitative evaluation of p38 and ERK1/2 phosphorylation of HaCaT cells stimulated for 30 min with Sandalore®(500 μM) or additionally with the p38 inhibitor 5B203580 (10 μM) or ERK1/2 inhibitor U0126 (10 μM). For evaluation, the ratio of the phosphorylated (p) and unphosphorylated proteins was established and compared to that of untreated cells. Mean values including standard error. Mann-Whitney U test. *: p<0.05; ***: p<0.001. In C), the inhibitors of the respective other MAP kinase were used, and phosphorylation was compared to the cells stimulated with Sandalore® (500 μM) alone. Mean values including standard error. Mann-Whitney U test. *: p<0.05. The Western Blot analyses were carried out with three different protein isolations.

Test [5] deals with HaCaT cells. Nature of the test: In vitro wound scratch assay, HaCaT cells. To be noted: HaCaT; for Sandalore-increased wound healing on coincubation: 48 hours, Sandalore 500 μM + antagonist 500 μM or inhibitor 10 μM; for effect of the substance alone on wound healing: antagonist 500 μM or inhibitor 10 μM alone. The class given is cell-based, human. The text has this:
The MAP kinases p38 and ERK1/2 are often associated with increased proliferation and migration in epidermal wound healing. For this reason, in a further physiological experiment, the effect of Sandalore® on “wound healing” of a confluent cell layer of HaCaT cells or primary keratinocytes was investigated. For this purpose, the wound scratch assay was used, which is an established in vitro method for initial investigations of wound healing processes in keratinocytes.
In order to investigate the role of the OR2AT4 receptor in this effect, a test was conducted to determine whether the two antagonists Oxyphenylon and Phenirat could again reduce the “wound healing” increased by Sandalore®. For this purpose, Sandalore® was mixed with one of the antagonists each in the same ratio, and the effect on “wound healing” of the HaCaT cells was again observed for 48 hours. […] The two antagonists alone had no effect on the “wound healing” (FIG. 18d). The role of the MAP kinases p38 and ERK1/2 was investigated by means of specific inhibitors of the kinases. For p38 MAPK, the […] SB203580 was used, and for ERK1/2 MAPK, the […] U0126 was used. […] The two inhibitors alone had no effect on the wound healing (FIG. 18d).
Effect of Sandalore® stimulation on human keratinocytes in an in vitro “wound healing” assay. Investigation of the “wound healing rate” of A) primary keratinocytes and B) HaCaT cells by means of a wound scratch assay in the presence of Sandalore® (500 μM) or 0.1% DMSO as a control. Left: Transmitted light images of the “wound” observed at various times. The growth margin of the cells was surrounded in black. Scale: 200 μm. Right: Quantitative evaluation of the wound scratch assay. The areas of the wounds were measured and compared to the initial wound (0 h). Mean values including standard error. Mann-Whitney U test; n=4 experiments. *: p<0.05; ***: p<0.001. C) Wound scratch assay in the presence of Sandalore® (500 μM) and one of the antagonists Oxyphenylon (500 μM) or Phenirat (500 μM) respectively, the p38 MAPK inhibitor 5B203580 (10 μM), or the ERK1/2 MAPK inhibitor U0126 (10 μM). The measured wound areas of the treated cells (after 48-hour stimulation) were compared to the control (0.1% DMSO). Mean values including standard error. Kruskal-Wallis test with multiple comparison; n=3 experiments. *: p<0.05. D) Controls for the wound scratch assay with Oxyphenylon (500 μM), Phenirat (500 μM), 5B203580 (10 μM), or U0126 (10 μM) carried out under C). The measured wound areas of the treated cells were compared to the control (0.1% DMSO). Mean value included.

On to `CC1(CO)CC1CC1CC2CC2(C)C1(C)C` (stereo not shown) [Javanol], for which the “activation of OR2AT4 in the luciferase assay” value (shortened to “activation of OR2AT4”) in test [1] is listed as “no increased activation of OR2AT4”. In addition, the “response rate of the Hana3A cells relative to the Ringer control” value in test [2] is “only Brahmanol showed an increased response rate”.

Consider `CC1=CCC(C=CC(C)(C)C(C)O)C1(C)C` (stereo not shown) [Polysantol], for which, in test [1], the “activation of OR2AT4” value was “no increased activation of OR2AT4”. Further, in test [2], the “response rate of the Hana3A cells relative to the Ringer control” value was “only Brahmanol showed an increased response rate”.

Take `C[S+]([O-])c1ccc(-c2nc(-c3ccncc3)c(-c3ccc(F)cc3)[nH]2)cc1` (stereo not shown) [SB203580]: the “Sandalore-induced p38 MAPK phosphorylation with p38 inhibitor” value in test [3] (30 min) was “significantly reduced”. In addition, in test [4], the “ERK1/2 phosphorylation in the presence of the p38 MAPK inhibitor compared to Sandalore only” value was “increased”. In test [5], the “Sandalore-increased wound healing on coincubation” value was “again reduced to the normal level” and the “effect of the substance alone on wound healing” value is recorded as “no effect”.

Take `CC/C(=C\CC1CC=C(C)C1(C)C)CO` (stereo not shown) [Sandranol]: in test [1] (at the investigated concentration (≥50 μM)), the “reaction in the CRE luciferase assay” value was “no reaction”. Further, the “response rate of the Hana3A cells relative to the Ringer control” value in test [2] is recorded as “only Brahmanol showed an increased response rate”.

Turning to `N#CC(=C(/N)Sc1ccccc1N)/C(C#N)=C(\N)Sc1ccccc1N` [U0126], the “increase of p38 MAPK phosphorylation in the presence of the ERK1/2 MAPK inhibitor compared to Sandalore only” value in test [3] is on record as “significant”. For the same compound, in test [4] (30 min), the “Sandalore-induced ERK1/2 MAPK phosphorylation with ERK1/2 inhibitor” value was “significantly reduced”. In test [5], the “Sandalore-increased wound healing on coincubation” value is given as “again reduced to the normal level” and the “effect of the substance alone on wound healing” value is “no effect”.

In the case of isobornyl cyclohexanol, in test [1], the “activation of OR2AT4” value is on record as “no increased activation of OR2AT4”. Also, in test [2], the “response rate of the Hana3A cells relative to the Ringer control” value is given as “only Brahmanol showed an increased response rate”.
